Legend:
[1] = target: T1, Cloned human M1 receptor (CHRM1) stably expressed in HEK293 cells (Homo sapiens, UniProt P11229); assay: CHRM1 Ca++ Flux Assay (agonist mode, FDSS 7000EX); format: cell-based; conditions: for Emax: HEK293, Percent Activity, read-out: M1 FDSS PA; for EC50: geometric mean if tested more than once; for M1 FDSS PA: Percent Activity
T1 construct: expressed in transfected cells; host or cells: HEK293
T1 sequence (P11229 1-460): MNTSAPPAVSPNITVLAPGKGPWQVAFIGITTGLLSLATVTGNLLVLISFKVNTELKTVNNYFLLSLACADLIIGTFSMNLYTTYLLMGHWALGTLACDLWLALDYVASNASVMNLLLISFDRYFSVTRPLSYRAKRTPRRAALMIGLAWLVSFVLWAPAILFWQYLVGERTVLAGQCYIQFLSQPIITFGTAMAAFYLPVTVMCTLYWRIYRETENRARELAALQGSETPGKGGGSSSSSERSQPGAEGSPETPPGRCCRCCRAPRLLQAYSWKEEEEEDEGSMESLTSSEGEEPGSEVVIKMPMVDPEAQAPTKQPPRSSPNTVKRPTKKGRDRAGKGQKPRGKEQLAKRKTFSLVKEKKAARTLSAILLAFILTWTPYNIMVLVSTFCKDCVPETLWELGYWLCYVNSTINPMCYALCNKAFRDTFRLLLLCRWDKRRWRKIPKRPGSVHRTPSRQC
Experimental: (§1) The above examples were characterized by measuring the intracellular mobilization of Ca++ ions caused by signaling events mediated by the receptor. The Intra-cellular Calcium flux levels were captured by the highly sensitive Ca++ indicator, Calcium Assay Kit (BD Biosciences, Catalog Number 640178). The fluorescent activity from all receptors were monitored by the fluorescent imager, FDSS 7000EX (Hamamatsu) over a span of 3 minutes.
Cloned human M1 receptor (CHRM1) was stably expressed in HEK293 cells and were grown and maintained in a monolayer culture with DMEM/High Glucose (Life Technologies) supplemented with 10% Fetal Bovine Serum, 1× Pen-Strep, and 0.5 mg/mL Geneticin in a humidified atmosphere (5% CO2) at 37° C. The cultures were grown to 90% confluency in T150 flasks (Corning) and washed with 1×DPBS and lifted with 0.05% Trypsin (Life Technologies). The cells were then spun (1K rpm, 3 minutes) and frozen using Recovery Cell Culture Freezing Media (Gibco Technologies). Cells were stored in liquid nitrogen and thawed a day before the assay.
Prior to the day of the assay, stable HEK293 M1 cells were thawed and plated on 384 well black walled clear bottom TC treated plates (Greiner Cat #781091) at 25K cells/well with DMEM/High Glucose supplemented with 10% FBS (Hyclone) Pen-Strep (Life Technologies) and kept overnight in a humidified atmosphere (5% CO2) at 37° C. The following day, cells were loaded with 20 uL Ca^++ dye (BD Biosciences) using Loading Buffer (HBSS +Ca/+Mg, 20 mM HEPES) and placed back in cell incubator for a minimum of 1 hour. The dye was replaced with 45 μL Assay Buffer (HBSS −Ca/−Mg, 20 mM HEPES) and kept at room temperature prior to running on cell imager. Compounds were prepared in Assay Buffer and 5 uL was added to the cells. The FDSS 7000EX (Hamamatsu) was used to acquire Ca++ traces for 3 minutes from cells treated with 11 point dose in triplicate in order to generate dose response curves in agonist mode. All compounds were serially diluted in DMSO then prepared in Assay Buffer for Ca^++ flux studies. The dose response curves were generated from the average of triplicate wells obtained from each data point and used a non-linear regression of four parameter dose response algorithm. The Percent Activity (PA) was measured to EC100 of Carbachol.

[2] = target: T2, human cloned CHRM4 receptor (M4_CHO cells) (Homo sapiens, UniProt P08173); assay: CHRM4 Ca++ Flux Assay (agonist mode, FDSS 7000EX); format: cell-based; conditions: for Emax / M4 FDSS PA: Percent Activity; for Emax: read-out: M4 FDSS PA; for EC50: geometric mean if tested more than once, read-out: M4 FDSS EC50
T2 construct: expressed in transfected cells; host or cells: CHO-K1
T2 sequence (P08173 1-479): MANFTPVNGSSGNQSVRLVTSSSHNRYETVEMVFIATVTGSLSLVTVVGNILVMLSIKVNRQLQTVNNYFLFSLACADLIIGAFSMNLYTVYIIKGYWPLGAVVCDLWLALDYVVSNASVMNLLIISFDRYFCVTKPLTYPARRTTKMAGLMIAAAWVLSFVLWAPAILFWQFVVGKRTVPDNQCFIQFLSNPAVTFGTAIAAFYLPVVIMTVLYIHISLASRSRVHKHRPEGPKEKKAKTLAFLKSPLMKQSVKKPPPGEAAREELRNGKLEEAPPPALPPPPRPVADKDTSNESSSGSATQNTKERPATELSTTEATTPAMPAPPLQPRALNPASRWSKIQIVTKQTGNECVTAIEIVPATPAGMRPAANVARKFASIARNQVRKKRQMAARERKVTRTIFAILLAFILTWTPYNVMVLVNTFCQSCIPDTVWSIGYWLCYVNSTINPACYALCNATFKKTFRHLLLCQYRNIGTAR
Experimental: as §1
CHO-K1 cells stably expressing the human cloned CHRM4 receptor (M4_CHO cells) were grown and maintained in a monolayer culture with F12/HAM (Life Technologies) supplemented with 10% Fetal Bovine Serum, 1× Pen-Strep, and 0.4 mg/mL Geneticin in a humidified atmosphere (5% CO2) at 37° C. The cultures were grown to 80-90% confluency in T150 flasks (Corning) and washed with 1×DPBS then lifted with 0.05% Trypsin (Life Technologies). The cells were harvested in growth media then spun (1K rpm, 3 minutes) and cryopreserved using Recovery Cell Culture Freezing Media (Gibco Technologies). Cells were stored in liquid nitrogen and thawed a day before the assay.
Prior to the day of the assay, stable M4_CHO cells were thawed and plated on 384 well black walled clear bottom TC treated plates (Greiner Cat #781091) at 12K cells/well using F12/HAM Media supplemented with 10% FBS (Life Technologies) and kept overnight in a humidified atmosphere (5% CO2) at 37° C. The next day, cells were loaded with […] Ca^++ dye (BD Biosciences) using Loading Buffer (HBSS +Ca/+Mg, 20 mM HEPES, 2.5 mM Probenecid) and placed back in cell incubator for a minimum of 1 hour. After incubation, the dye was replaced with 45 μL Assay Buffer (HBSS −Ca/−Mg, 20 mM HEPES, 2.5 mM Probenecid) supplemented with 20 μM ATP (Sigma Aldrich) and kept at room temperature in the dark for 60 minutes before running on a cell imager. The FDSS 7000EX (Hamamatsu) was used to capture Ca^++ traces for a span of 3 minutes from cells treated with 11 point dose of compound in triplicate in order to generate dose response curves in agonist mode. All compounds were serially diluted in DMSO then prepared in Assay Buffer for Ca^++ flux studies. The dose response curves were generated from the average of triplicate wells obtained from each data point and used a non-linear regression of four parameter dose response algorithm. The Percent Activity (PA) was measured to EC100 of Carbachol.

Emax [1]	EC50 [1]	Emax [2]	EC50 [2]	M1 FDSS PA [1]	M4 FDSS PA [2]	SMILES
–	> 25000 nM	–	1070 nM	0%	17%	COc1ccccc1C1CCN([C@H]2CCC3(C2)CN(c2ncco2)C3)CC1 (single isomer, unassigned) [Example 10I, S)-2-(6-(4-(2-methoxyphenyl)piperidin-1-yl)-2-azaspiro[3.4]octan-2-yl)oxazole or (R)-2-(6-(4-(2-methoxyphenyl)piperidin-1-yl)-2-azaspiro[3.4]octan-2-yl)oxazole]
–	1410 nM	–	25 nM	55%	50%	Fc1ccc(C2CCOCC2)c(C2CCN([C@@H]3CCC4(C3)CN(c3cncnc3)C4)CC2)c1 (single isomer, unassigned) [Example 10D, (R)-6-(4-(5-fluoro-2-(tetrahydro-2H-pyran-4-yl)phenyl)piperidin-1-yl)-2-(pyrimidin-5-yl)-2-azaspiro[3.4]octane or (S)-6-(4-(5-fluoro-2-(tetrahydro-2H-pyran-4-yl)phenyl)piperidin-1-yl)-2-(pyrimidin-5-yl)-2-azaspiro[3.4]octane]

More lines, now with the values behind:

SMILES	Emax [1]	EC50 [1]	Emax [2]	EC50 [2]	M1 FDSS PA [1]	M4 FDSS PA [2]
Fc1ccc(OC2CC3(COC3)C2)c(C2CCN([C@@H]3CCC4(C3)CN(c3nnco3)C4)CC2)c1 [Example 1B, (R)-2-(6-(4-(2-((2-oxaspiro[3.3]heptan-6-yl)oxy)-5-fluorophenyl)piperidin-1-yl)-2-azaspiro[3.4]octan-2-yl)-1,3,4-oxadiazole]	48%	322 nM	69%	1 nM	–	–
COc1ccccc1C1CCN([C@@H]2CCC3(C2)CN(c2cncc(C)n2)C3)CC1 [Example 5G, (R)-6-(4-(2-methoxyphenyl)piperidin-1-yl)-2-(6-methylpyrazin-2-yl)-2-azaspiro[3.4]octane]	0%	> 25000 nM	1%	> 25000 nM	–	–
COc1ccc(Cl)cc1C1CCN([C@@H]2CCC3(C2)CN(c2ccnnc2)C3)CC1 [Example 5P, (R)-6-(4-(5-chloro-2-methoxyphenyl)piperidin-1-yl)-2-(pyridazin-4-yl)-2-azaspiro[3.4]octane]	60%	196 nM	55%	43 nM	–	–
O=C(N1CC2(CC[C@@H](N3CCC(c4ccccc4OCCC(F)(F)F)CC3)C2)C1)C1(F)CC1 (single isomer, unassigned) [Example 7AA, (R)-(1-fluorocyclopropyl)(6-(4-(2-(3,3,3-trifluoropropoxy)phenyl)piperidin-1-yl)-2-azaspiro[3.4]octan-2-yl)methanone or (S)-(1-fluorocyclopropyl)(6-(4-(2-(3,3,3-trifluoropropoxy)phenyl)piperidin-1-yl)-2-azaspiro[3.4]octan-2-yl)methanone]	–	139 nM	–	11 nM	57%	54%
O=C(N1CC2(CC[C@@H](N3CCC(c4ccccc4OCCO)CC3)C2)C1)C1(F)CC1 (single isomer, unassigned) [Example 7N, (R)-(1-fluorocyclopropyl)(6-(4-(2-(2-hydroxyethoxy)phenyl)piperidin-1-yl)-2-azaspiro[3.4]octan-2-yl)methanone or (S)-(1-fluorocyclopropyl)(6-(4-(2-(2-hydroxyethoxy)phenyl)piperidin-1-yl)-2-azaspiro[3.4]octan-2-yl)methanone]	–	22 nM	–	1 nM	45%	68%
CCOc1ccccc1C1CCN([C@@H]2CCC3(C2)CN(C(=O)C2(F)CC2)C3)CC1 (single isomer, unassigned) [Example 7S, (R)-(6-(4-(2-ethoxyphenyl)piperidin-1-yl)-2-azaspiro[3.4]octan-2-yl)(1-fluorocyclopropyl)methanone or (S)-(6-(4-(2-ethoxyphenyl)piperidin-1-yl)-2-azaspiro[3.4]octan-2-yl)(1-fluorocyclopropyl)methanone]	–	> 25000 nM	–	2650 nM	0%	26%

From patent publication US12122761B2, “2-azaspiro[3.4]octane derivatives as M4 agonists” (NOVARTIS AG, priority 2019, dated 2024)
